Laboratory results reported in patent US5530097A, “Human cancer inhibitory peptide amides” (Arizona Board of Regents acting on behalf of Arizona State …, priority 1994, dated 1996).

Tests used:
[1] = test system: MX-1 Human Mammary Xenograft; assay: Experimental anticancer activity in murine in vivo systems (Tumor Regression); conditions: MX-1 (Tumor Regression)
A498 = assay: NCI in vitro mini panel, human cancer cell line growth inhibition; format: cell-based; conditions: Renal A498, 48 hrs
Description: (§1) ED50 (P388) and GI50 (HTCL) identify the drug dose which reduces the percent tumor/cell growth to 50%. There is no mathematical difference between ED50 and GI50, both of which are calculated using the same formula. The only difference is historical usage.
(§2) TGI, means "Total Growth Inhibition", and identifies the drug dose needed to yield zero percent growth, i.e. there are just as many cells at the end of the experiment as were present at the beginning. Whether just as many cells were killed as were produced (steady state), or no growth occurred (total inhibition) cannot be distinguished.
(§3) LC50, means "Lethal Concentration 50%", and identifies the drug concentration which reduces to one-half of the cells originally present at the beginning of the experiment.
(§4) Each drug is tested at five (5) doses: 100--10-1-0.1--0.01 μg/mL. Percent Growths are calculated for each dose. The two (or three) doses with growth values above, below, (or near to) 50% growth are used to calculate the ED50 /GI50 values using a linear regression computation. If no dose yields a growth value under 50%, the results are expressed as: ED50 >(highest dose). If no dose yields growth higher than 50% growth, then ED50 <(lowest dose). Similar calculations are performed for the TGI at 0% growth, and at -50% growth for the LC50.
(§5) At the start of each experiment, cells from the in vitro cell cultures are inoculated into the appropriate tubes or microtiter plates. One set of control tubes/plates is immediately counted to determine the number of cells at the start of the experiment. This is the "baseline count", or "Tzero reading". At the end of the experiment (48 hrs later), a second set of control tubes/plates is analyzed to determine the "Control Growth" value. The growth (or death) of cells relative to the initial quantity of cells is used to define the "Percent of Growth."
(§6) Similarly, the compounds disclosed herein have also been tested against an NCI in vitro mini panel. For each of six cell lines GI50, TGI, and LC50 amounts were calculated for each compound. Each compound was also tested against the PS-388 cell line and for this test an ED50 was calculated.
(§7) The protocols followed, for the NCI minipanel are, except for the number of cell lines, those established by M. R. Boyd Ph.D., and well known to those of ordinary skill in the art. The procedure followed for the test against PS-388 Leukemia is the same that was followed in the superseded NCI P-388 screening test, which is also well known to those having ordinary skill in the art.

KM20L2 = assay: as above; format: cell-based; conditions: Colon KM20L2, 48 hrs
Description: as §1, §2, §3, §4, §5, §6, §7

NCI-H460 = assay: as above; format: cell-based; conditions: Lung-NSC NCI-H460, 48 hrs
Description: as §1, §2, §3, §4, §5, §6, §7

OVCAR-3 = assay: as above; format: cell-based; conditions: Ovarian OVCAR-3, 48 hrs
Description: as §1, §2, §3, §4, §5, §6, §7

SF-295 = assay: as above; format: cell-based; conditions: CNS SF-295, 48 hrs
Description: as §1, §2, §3, §4, §5, §6, §7

SK-MEL-5 = assay: as above; format: cell-based; conditions: Melanoma SK-MEL-5, 48 hrs
Description: as §1, §2, §3, §4, §5, §6, §7

PS-388 = PS-388 mouse leukemia cell line test; format: cell-based; conditions: Mouse Leukemia PS-388
Description: as §1, §4, §5, §6, §7

| Substance | GI-50 (A498) [µg/mL] | LC-50 (A498) [µg/mL] | TGI (A498) [µg/mL] | GI-50 (KM20L2) [µg/mL] | LC-50 (KM20L2) [µg/mL] | TGI (KM20L2) [µg/mL] | GI-50 (NCI-H460) [µg/mL] | LC-50 (NCI-H460) [µg/mL] | TGI (NCI-H460) [µg/mL] | GI-50 (OVCAR-3) [µg/mL] | LC-50 (OVCAR-3) [µg/mL] | TGI (OVCAR-3) [µg/mL] | GI-50 (SF-295) [µg/mL] | LC-50 (SF-295) [µg/mL] | TGI (SF-295) [µg/mL] | GI-50 (SK-MEL-5) [µg/mL] | LC-50 (SK-MEL-5) [µg/mL] | TGI (SK-MEL-5) [µg/mL] | ED-50 (PS-388) [µg/mL] | other results |
| --- | --- | --- | --- | --- | --- | --- | --- | --- | --- | --- | --- | --- | --- | --- | --- | --- | --- | --- | --- | --- |
| Dolastatin 10 | – | – | – | – | – | – | – | – | – | – | – | – | – | – | – | – | – | – | – | T/C ([1]; 6.25 μg/kg): 69; T/C ([1]; 13 μg/kg): 61; T/C ([1]; 26 μg/kg): 50; T/C ([1]; 52 μg/kg): 14 |
| L-Dolavalyl-L-Leucyl-N-methyl-(3R,4S,5S)-Dolaisoleuinyl-(2R,3R,4S)-Dolaproinyl-N-2(3-chlorophenyl) ethylamide [10c] | 0.0038 | > 0.01 | > 0.01 | 0.0020 | > 0.01 | > 0.01 | 0.0029 | > 0.01 | 0.0084 | 0.0019 | > 0.01 | > 0.01 | 0.0035 | > 0.01 | > 0.01 | 0.0025 | > 0.01 | > 0.01 | 0.00314 | – |
| L-Dolavalyl-L-Leucyl-N-methyl-(3R,4S,5S)-Dolaisoleuinyl-(2R,3R,4S)-Dolaproinyl-N-2(4-chlorophenyl) ethylamide [10d] | 0.0059 | > 1 | 0.29 | 0.00011 | > 1 | 0.011 | 0.0024 | > 1 | 0.0097 | 0.00029 | > 1 | 0.012 | 0.0017 | > 1 | 0.1 | 0.00091 | > 1 | > 1 | 0.00586 | – |
